Measurements as given in US10266497B2 (ABIDE THERAPEUTICS, INC., priority 2017, dated 2019).

What was measured:
[1] = molecular target: T1, MAGL (Homo sapiens, UniProt Q99685); assay: In vitro competitive activity-based protein profiling, MAGL, human; conditions: read-out: MAGL % inh. 1 μM (human)
T1 sequence (Q99685 1-303): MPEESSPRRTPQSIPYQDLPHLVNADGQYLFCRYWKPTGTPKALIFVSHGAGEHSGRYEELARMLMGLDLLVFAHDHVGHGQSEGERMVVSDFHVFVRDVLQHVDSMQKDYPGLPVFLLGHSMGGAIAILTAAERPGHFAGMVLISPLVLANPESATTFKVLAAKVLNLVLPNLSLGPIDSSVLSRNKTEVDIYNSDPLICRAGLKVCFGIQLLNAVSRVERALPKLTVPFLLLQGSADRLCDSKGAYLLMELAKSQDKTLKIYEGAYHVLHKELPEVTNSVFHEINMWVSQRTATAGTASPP

[2] = molecular target: T2, FAAH (Mus musculus, UniProt O08914); assay: Mouse brain proteomes from inhibitor treated mice (oral gavage, sacrificed 4 h after administration), FAAH; format: in vivo; parameters: mouse brain membrane fraction for mouse assays; from tissue; host or cells: mouse brain (membrane fraction in vitro; brain proteomes of treated C57Bl/6J mice in vivo); conditions: 5 mg/kg oral gavage, brain proteome 4 h after administration, read-out: FAAH % inh. 5 mg/kg (mouse)
T2 sequence (O08914 1-579): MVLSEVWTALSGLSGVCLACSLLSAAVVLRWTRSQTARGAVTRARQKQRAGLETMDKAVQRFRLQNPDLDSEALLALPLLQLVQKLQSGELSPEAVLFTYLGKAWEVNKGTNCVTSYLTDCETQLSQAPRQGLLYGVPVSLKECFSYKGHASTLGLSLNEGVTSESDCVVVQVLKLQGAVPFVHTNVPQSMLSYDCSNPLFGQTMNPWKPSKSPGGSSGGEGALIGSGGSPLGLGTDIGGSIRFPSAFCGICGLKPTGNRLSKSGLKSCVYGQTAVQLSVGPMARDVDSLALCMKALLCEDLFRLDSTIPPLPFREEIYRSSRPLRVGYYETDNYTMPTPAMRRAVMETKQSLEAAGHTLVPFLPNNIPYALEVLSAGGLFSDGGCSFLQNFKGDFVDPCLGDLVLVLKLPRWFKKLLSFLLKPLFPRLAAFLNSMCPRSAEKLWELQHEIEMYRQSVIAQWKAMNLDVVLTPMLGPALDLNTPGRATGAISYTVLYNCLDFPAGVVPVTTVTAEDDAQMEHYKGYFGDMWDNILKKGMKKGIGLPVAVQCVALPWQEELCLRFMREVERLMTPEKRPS

[3] = molecular target: T3, FAAH (Homo sapiens, UniProt O00519); assay: In vitro competitive activity-based protein profiling, FAAH, human; conditions: for inhibition at 1 µM: read-out: FAAH % inh. 1 μM (human)
T3 sequence (O00519 1-579): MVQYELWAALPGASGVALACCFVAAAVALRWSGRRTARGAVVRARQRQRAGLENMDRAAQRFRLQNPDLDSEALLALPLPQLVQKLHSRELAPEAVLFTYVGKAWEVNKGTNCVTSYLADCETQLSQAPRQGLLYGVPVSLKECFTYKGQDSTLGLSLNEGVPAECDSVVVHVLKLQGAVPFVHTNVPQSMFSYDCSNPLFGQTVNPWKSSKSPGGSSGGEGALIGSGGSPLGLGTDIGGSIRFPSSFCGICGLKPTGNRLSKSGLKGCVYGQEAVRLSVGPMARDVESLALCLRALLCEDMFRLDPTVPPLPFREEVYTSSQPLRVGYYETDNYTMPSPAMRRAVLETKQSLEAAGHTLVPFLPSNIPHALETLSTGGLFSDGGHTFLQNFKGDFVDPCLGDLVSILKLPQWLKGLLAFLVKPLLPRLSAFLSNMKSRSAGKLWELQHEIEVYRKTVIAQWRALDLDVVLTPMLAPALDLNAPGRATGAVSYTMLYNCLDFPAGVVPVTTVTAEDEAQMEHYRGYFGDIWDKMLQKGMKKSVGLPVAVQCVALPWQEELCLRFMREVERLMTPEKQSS

[4] = molecular target: T4, MAGL (Mus musculus, UniProt O35678); assay: Mouse brain proteomes from inhibitor treated mice (oral gavage, sacrificed 4 h after administration); format: in vivo; parameters: mouse brain membrane fraction for mouse assays; from tissue; host or cells: mouse brain (membrane fraction in vitro; brain proteomes of treated C57Bl/6J mice in vivo); conditions: 5 mg/kg oral gavage, brain proteome 4 h after administration, read-out: MAGL % inh. 5 mg/kg (mouse)
T4 sequence (O35678 1-303): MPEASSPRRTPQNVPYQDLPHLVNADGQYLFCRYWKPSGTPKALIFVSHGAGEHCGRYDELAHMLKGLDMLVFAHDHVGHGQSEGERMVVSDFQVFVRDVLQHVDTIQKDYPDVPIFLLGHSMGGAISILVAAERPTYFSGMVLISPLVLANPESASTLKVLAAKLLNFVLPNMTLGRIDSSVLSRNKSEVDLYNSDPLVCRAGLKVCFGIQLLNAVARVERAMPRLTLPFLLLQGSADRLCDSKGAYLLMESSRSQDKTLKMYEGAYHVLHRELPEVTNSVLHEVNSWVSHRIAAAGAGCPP

[5] = molecular target: T4, MAGL; assay: In vitro competitive activity-based protein profiling, MAGL, mouse; conditions: read-out: MAGL % inh. 1 μM (mouse)
[6] = molecular target: T2, FAAH; assay: In vitro competitive activity-based protein profiling, FAAH, mouse; conditions: read-out: FAAH % inh. 1 μM (mouse)

inhibition at 1 µM [1] [%] | inhibition at 5 mg/kg [2] [%] | inhibition at 1 µM [3] [%] | inhibition at 5 mg/kg [4] [%] | inhibition at 1 µM [5] [%] | inhibition at 1 µM [6] [%] | IC50 [3] [nM] | SMILES
> 75 | 0 to 25 | 0 to 25 | 0 to 25 | > 75 | 0 to 25 | – | CN(Cc1ccc(C(F)(F)F)cc1-c1nccs1)C1(C)CCN(C(=O)n2ccc(C(=O)O)n2)CC1 [Example 10, 1-(4-methyl-4-(methyl(2-(thiazol-2-yl)-4-(trifluoromethyl)benzyl)amino)piperidine-1-carbonyl)-1H-pyrazole-3-carboxylic Acid]
> 75 | 0 to 25 | 0 to 25 | 0 to 25 | > 75 | 0 to 25 | – | O=C(O)c1ccn(C(=O)N2CCC(Oc3ccc(Cl)cc3N3CCCC3)CC2)n1 [Example 11, 1-(4-(4-Chloro-2-(pyrrolidin-1-yl)phenoxy)piperidine-1-carbonyl)-1H-pyrazole-3-carboxylic Acid]
> 75 | 0 to 25 | 0 to 25 | 0 to 25 | > 75 | 0 to 25 | – | COC1CCN(c2cc(C(F)(F)F)ccc2CN2CCN(C(=O)n3ccc(C(=O)O)n3)CC2)CC1 [Example 12, 1-(4-(2-(4-Methoxypiperidin-1-yl)-4-(trifluoromethyl)benzyl)piperazine-1-carbonyl)-1H-pyrazole-3-carboxylic Acid]
> 75 | 0 to 25 | 50 to 75 | 0 to 25 | > 75 | > 75 | 1000 to 10000 | O=C(O)c1ccn(C(=O)N2CCC3(CCN(Cc4cc(Cl)ccc4C(F)(F)F)C3)CC2)n1 [Example 43, 1-(2-(5-chloro-2-(trifluoromethyl)benzyl)-2,8-diazaspiro[4.5]decane-8-carbonyl)-1H-pyrazole-3-carboxylic acid]
> 75 | 0 to 25 | 0 to 25 | 0 to 25 | > 75 | 0 to 25 | – | O=C(O)c1ccn(C(=O)N2CCN(Cc3ccc(C(F)(F)F)cc3N3CCN4CCC[C@@H]4C3)CC2)n1 [Example 48, (R)-1-(4-(2-(hexahydropyrrolo [1,2-a]pyrazin-2(1H)-yl)-4-(trifluoromethyl)benzyl)piperazine-1-carbonyl)-1H-pyrazole-3-carboxylic acid]
> 75 | 0 to 25 | 50 to 75 | 0 to 25 | > 75 | 0 to 25 | 100 to 1000 | O=C(O)c1ccn(C(=O)N2CCN(Cc3cccc(Oc4ccc(F)cc4)c3)CC2)n1 [Example 51, 1-(4-(3-(4-fluorophenoxy)benzyl)piperazine-1-carbonyl)-1H-pyrazole-3-carboxylic acid]
> 75 | 0 to 25 | > 75 | 0 to 25 | > 75 | > 75 | – | O=C(O)c1ccn(C(=O)N2C[C@H]3C[C@H](OCc4ccc(Oc5ccc(Cl)cc5)cc4)C[C@H]3C2)n1 [Example 55, 1-(trans-5-((4-(4-chlorophenoxy)benzyl)oxy)octa-hydrocyclopenta[c]pyrrole-2-carbonyl)-1H-pyrazole-3-carboxylic acid]
> 75 | 0 to 25 | 50 to 75 | 0 to 25 | > 75 | 50 to 75 | 100 to 1000 | O=C(O)c1ccn(C(=O)N2CCN(Cc3cccc(Oc4cc(C(F)(F)F)ccn4)c3)CC2)n1 [Example 57, 1-(4-(3-((4-(trifluoromethyl)pyridin-2-yl)oxy)benzyl)piper-azine-1-carbonyl)-1H-pyrazole-3-carboxylic acid]
> 75 | 0 to 25 | 0 to 25 | 0 to 25 | > 75 | 0 to 25 | – | O=C(O)c1ccn(C(=O)N2CCC3(CCCN3Cc3ccc(C(F)(F)F)cc3Cl)CC2)n1 [Example 76, 1-(1-(2-chloro-4-(trifluoromethyl)benzyl)-1,8-diazaspiro[4.5]decane-8-carbonyl)-1H-pyrazole-3-carboxylic acid]
> 75 | 0 to 25 | 0 to 25 | 0 to 25 | > 75 | 0 to 25 | 1000 to 10000 | O=C(O)c1ccn(C(=O)N2CCN(Cc3ccc(C(F)(F)F)cc3N3CCCC3)CC2)n1 [Example 83, 1-(4-(2-(pyrrolidin-1-yl)-4-(trifluoromethyl)benzyl)piperazine-1-carbonyl)-1H-pyrazole-3-carboxylic acid]
> 75 | 0 to 25 | 0 to 25 | 0 to 25 | > 75 | 0 to 25 | – | O=C(O)c1ccn(C(=O)N2CCC3(CCCN3Cc3cc(Cl)cc(C(F)(F)F)c3)CC2)n1 [Example 86, 1-(1-(3-chloro-5-(trifluoromethyl)benzyl)-1,8-diazaspiro[4.5]decane-8-carbonyl)-1H-pyrazole-3-carboxylic acid]
> 75 | 0 to 25 | 0 to 25 | 0 to 25 | > 75 | 0 to 25 | – | O=C(O)c1ccn(C(=O)N2CCC3(CCCN3Cc3cc(N4CCCC4)cc(C(F)(F)F)c3)CC2)n1 [Example 88, 1-(1-(3-(pyrrolidin-1-yl)-5-(trifluoromethyl)benzyl)-1,8-diazaspiro[4.5]decane-8-carbonyl)-1 1H-pyrazole-3-carboxylic acid]

SMILES | inhibition at 1 µM [1] [%] | inhibition at 5 mg/kg [2] [%] | inhibition at 1 µM [3] [%] | inhibition at 5 mg/kg [4] [%] | inhibition at 1 µM [5] [%] | inhibition at 1 µM [6] [%] | IC50 [3] [nM]
O=C(O)c1ccn(C(=O)N2CCN(Cc3ccc(C(F)(F)F)c(N4C5CCC4COC5)c3)CC2)n1 [Example 40, 1-(4-(3-(3-oxa-8-azabicyclo[3.2.1]octan-8-yl)-4-(trifluoromethyl)benzyl)piperazine-1-carbonyl)-1H-pyrazole-3-carboxylic acid] | > 75 | 0 to 25 | 0 to 25 | 0 to 25 | > 75 | 0 to 25 | –
